# Experimental data taken from patent US20230250106A1, “COMPOUNDS AND COMPOSITIONS FOR TREATING CONDITIONS ASSOCIATED WITH STING ACTIVITY” (IFM Due, Inc., priority 2020, published 2023).
# Tested on: STING pathway
# Test: STING reporter assay: luciferase reporter activity in THP1-Dual KO-IFNAR2 cells activated with 2'3'cGAMP
# Type: cell-based
# Parameters: hSTING EC50: scale not given here
# Details: 2'3'cGAMP 15 μM, 24 h
# Method: STING pathway activation by the compounds described herein was measured using THP1-Dual™ cells (KO-IFNAR2).
# THP1-Dual™ KO-IFNAR2 Cells (obtained from invivogen) were maintained in RPMI, 10% FCS, 5 ml P/S, 2 mM L-glut, 10 mM Hepes, and 1 mM sodium pyruvate. Compounds were spotted in empty 384 well tissue culture plates (Greiner 781182) by Echo for a final concentration of 0.0017-100 μM. Cells were plated into the TC plates at 40 μL per well, 2×10E6 cells/mL. For activation with STING ligand, 2′3′cGAMP (MW 718.38, obtained from Invivogen), was prepared in Optimem media.
# The following solutions were prepared for each 1×384 plate: • Solution A: 2 mL Optimem with one of the following stimuli: • 60 μL of 10 mM 2′3′cGAMP→150 μM stock • Solution B: 2 mL Optimem with 60 μL Lipofectamine 2000→Incubate 5 min at RT
# 2 mL of solution A and 2 ml Solution B was mixed and incubated for 20 min at room temperature (RT). 20 μL of transfection solution (A+B) was added on top of the plated cells, with a final 2′3′cGAMP concentration of 15 μM. The plates were then centrifuged immediately at 340 g for 1 minute, after which they were incubated at 37° C., 5% CO2,>98% humidity for 24 h. Luciferase reporter activity was then measured. EC50 values were calculated by using standard methods known in the art.
# Luciferase reporter assay: 10 μL of supernatant from the assay was transferred to white 384-plate with flat bottom and squared wells. One pouch of QUANTI-Luc™ Plus was dissolved in 25 mL of water. 100 μL of QLC Stabilizer per 25 mL of QUANTI-Luc™ Plus solution was added. 50 μL of QUANTI-Luc™ Plus/QLC solution per well was then added. Luminescence was measured on a Platereader (e.g., Spectramax I3X (Molecular Devices GF3637001)).
# Luciferase reporter activity was then measured. EC50 values were calculated by using standard methods known in the art.
row,Structure (SMILES),hSTING EC50
1,"COc1ncc(C(=O)Nc2c[nH]c3cc(F)c(F)cc23)cc1C(F)(F)F [Compound 264, N-(5,6-difluoro-1H-indol-3-yl)-6-methoxy-5-(trifluoromethyl)pyridine-3-carboxamide]",+ +

# Same assay, conditions: Homo sapiens, 2'3'cGAMP 15 μM, 24 h, read-out: hSTING EC50
row,Structure (SMILES),EC50
1,"O=C(Nc1c[nH]c2cc(F)c(F)cc12)c1ccnc(N2CC(F)(F)C2)c1Cl [Compound 252, 3-chloro-N-(5,6-difluoro-1H-indol-3-yl)-2-(3,3-difluoroazetidin-1-yl)isonicotinamide]",1000 to 5000 nM
2,"COCCOc1cc(C(=O)Nc2c[nH]c3cc(F)c(F)cc23)ccc1C(F)(F)F [Compound 232, N-(5,6-difluoro-1H-indol-3-yl)-3-(2-methoxyethoxy)-4-(trifluoromethyl)benzamide]",200 to 1000 nM
3,"CC(C)c1nc(-c2ccc(C(=O)Nc3c[nH]c4cc(F)c(F)cc34)cc2)no1 [Compound 267, N-(5,6-difluoro-1H-indol-3-yl)-4-(5-isopropyl-1,2,4-oxadiazol-3-yl)benzamide]",200 to 1000 nM
4,"O=C(Nc1c[nH]c2cc(F)c(F)cc12)c1ccc(OCCC(F)(F)F)cc1 [Compound 141, N-(5,6-difluoro-1H-indol-3-yl)-4-(3,3,3-trifluoropropoxy)benzamide]",200 to 1000 nM
5,"CC1(c2ncc(C(=O)Nc3c[nH]c4cc(F)c(F)cc34)cc2F)CCC(F)(F)CC1 [Compound 220, 6-(4,4-difluoro-1-methylcyclohexyl)-N-(5,6-difluoro-1H-indol-3-yl)-5-fluoronicotinamide]",40 to 200 nM
6,"COCCNc1cc(C(=O)Nc2c[nH]c3cc(F)c(F)cc23)ccc1C(F)(F)F [Compound 236, N-(5,6-difluoro-1H-indol-3-yl)-3-((2-methoxyethyl)amino)-4-(trifluoromethyl)benzamide]",200 to 1000 nM
7,"Cc1cc(C(=O)Nc2c[nH]c3cc(F)c(F)cc23)ccc1OCCCC(F)(F)F [Compound 155, N-(5,6-difluoro-1H-indol-3-yl)-3-methyl-4-(4,4,4-trifluorobutoxy)benzamide]",40 to 200 nM
8,"COc1cc(C(=O)Nc2c[nH]c3cc(F)c(F)cc23)ccc1C(F)(F)F [Compound 112, N-(5,6-difluoro-1H-indol-3-yl)-3-methoxy-4-(trifluoromethyl)benzamide]",200 to 1000 nM
9,"O=C(Nc1c[nH]c2cc(F)c(F)cc12)c1cccc(OC(F)(F)F)c1 [Compound 125, N-(5,6-difluoro-1H-indol-3-yl)-3-(trifluoromethoxy)benzamide]",200 to 1000 nM
10,"O=C(Nc1c[nH]c2ccc(-c3cnn(-c4cccc(C5CC5)c4)c3)cc12)c1ccc(OCCCC(F)(F)F)cc1 [Compound 201, N-(5-(1-(3-cyclopropylphenyl)-1H-pyrazol-4-yl)-1H-indol-3-yl)-4-(4,4,4-trifluorobutoxy)benzamide]",200 to 1000 nM
11,"O=C(Nc1c[nH]c2cc(F)c(F)cc12)c1cnc(OCCCC(F)(F)F)cn1 [Compound 148, N-(5,6-difluoro-1H-indol-3-yl)-5-(4,4,4-trifluorobutoxy)pyrazine-2-carboxamide]",200 to 1000 nM
12,"C[C@@H](c1ccc(C(=O)Nc2c[nH]c3cc(F)c(F)cc23)cc1F)N1CC(F)(F)C1 (single isomer, unassigned) [Compound 244, (R or S)—N-(5,6-difluoro-1H-indol-3-yl)-4-(1-(3,3-difluoroazetidin-1-yl)-1l3-ethyl)-3-fluorobenzamide]",200 to 1000 nM
13,"O=C(Nc1c[nH]c2cc(F)c(F)cc12)c1ccc(OC(F)(F)C(F)F)cc1 [Compound 268, N-(5,6-difluoro-1H-indol-3-yl)-4-(1,1,2,2-tetrafluoroethoxy)benzamide]",200 to 1000 nM
14,"O=C(Nc1c[nH]c2cc(F)c(F)cc12)c1ccc(OC2CCCC2)cc1 [Compound 168, 4-(cyclopentyloxy)-N-(5,6-difluoro-1H-indol-3-yl)benzamide]",200 to 1000 nM
15,"O=C(Nc1c[nH]c2cc(F)c(F)cc12)c1cnc(NCCC(F)(F)F)c(F)c1 [Compound 242, N-(5,6-difluoro-1H-indol-3-yl)-5-fluoro-6-((3,3,3-trifluoropropyl)amino)nicotinamide]",200 to 1000 nM
16,"O=C(Nc1c[nH]c2cc(F)c(F)cc12)c1cnc(CN2CCC(F)(F)CC2)c(Cl)c1 [Compound 254, 5-chloro-N-(5,6-difluoro-1H-indol-3-yl)-6-((4,4-difluoropiperidin-1-yl)methyl)nicotinamide]",200 to 1000 nM
17,"O=C(Nc1c[nH]c2cc(F)c(F)cc12)c1ccc(OCCC(F)(F)F)c(F)c1 [Compound 160, N-(5,6-difluoro-1H-indol-3-yl)-3-fluoro-4-(3,3,3-trifluoropropoxy)benzamide]",40 to 200 nM

row,Structure (SMILES),EC50
1,"CC(C)(C)OC(=O)N1CCC(Oc2ccc(C(=O)Nc3c[nH]c4cc(F)c(F)cc34)cc2)CC1 [Compound 249, tert-butyl 4-{4-[(5,6-difluoro-1H-indol-3-yl)carbamoyl]phenoxy}piperidine-1-carboxylate]",200 to 1000 nM
2,"O=C(Nc1c[nH]c2cc(F)c(F)cc12)c1ccc(CCC(F)(F)F)c(F)c1 [Compound 176, N-(5,6-difluoro-1H-indol-3-yl)-3-fluoro-4-(3,3,3-trifluoropropyl)benzamide]",200 to 1000 nM
3,"Cc1nc(C(=O)Nc2c[nH]c3cc(F)c(F)cc23)cnc1OCC(F)(F)F [Compound 173, N-(5,6-difluoro-1H-indol-3-yl)-6-methyl-5-(2,2,2-trifluoroethoxy)pyrazine-2-carboxamide]",1000 to 5000 nM
4,"O=C(Nc1c[nH]c2cc(F)c(F)cc12)c1cccc(OCc2ccccc2)c1 [Compound 131, 3-(benzyloxy)-N-(5,6-difluoro-1H-indol-3-yl)benzamide]",1000 to 5000 nM
5,"Cc1cc(C(=O)Nc2c[nH]c3cc(F)c(F)cc23)cnc1N1CC2(CCOC2)C1 [Compound 207, N-(5,6-difluoro-1H-indol-3-yl)-5-methyl-6-(6-oxa-2-azaspiro[3.4]octan-2-yl)nicotinamide]",1000 to 5000 nM
6,"N#Cc1cc(C(=O)Nc2c[nH]c3ccc(Cl)cc23)cnc1N1CC(F)(F)C1 [Compound 271, N-(5-chloro-1H-indol-3-yl)-5-cyano-6-(3,3-difluoroazetidin-1-yl)nicotinamide]",200 to 1000 nM
7,"O=C(Nc1c[nH]c2cc(F)c(F)cc12)c1ccc(OC2CC(F)(F)C2)cc1 [Compound 109, N-(5,6-difluoro-1H-indol-3-yl)-4-(3,3-difluorocyclobutoxy)benzamide]",200 to 1000 nM
8,"COCCOc1cccc(C(=O)Nc2c[nH]c3cc(F)c(F)cc23)c1 [Compound 194, N-(5,6-difluoro-1H-indol-3-yl)-3-(2-methoxyethoxy)benzamide]",200 to 1000 nM
9,"O=C(Nc1c[nH]c2cc(F)c(F)cc12)c1cnc(N2CCC(F)(F)CC2)c(F)c1 [Compound 154, N-(5,6-difluoro-1H-indol-3-yl)-6-(4,4-difluoropiperidin-1-yl)-5-fluoronicotinamide]",200 to 1000 nM
10,"O=C(Nc1c[nH]c2cc(F)c(F)cc12)c1cccc(OC(F)F)c1 [Compound 121, N-(5,6-difluoro-1H-indol-3-yl)-3-(difluoromethoxy)benzamide]",1000 to 5000 nM
11,"Cc1nc(-c2cccc(C(=O)Nc3c[nH]c4cc(F)c(F)cc34)c2)no1 [Compound 274, N-(5,6-difluoro-1H-indol-3-yl)-3-(5-methyl-1,2,4-oxadiazol-3-yl)benzamide]",200 to 1000 nM
12,"CC(C)n1cc(-c2cc(F)c3[nH]cc(NC(=O)c4ccc(OCCCC(F)(F)F)cc4)c3c2)cn1 [Compound 204, N-(7-fluoro-5-(1-isopropyl-1H-pyrazol-4-yl)-1H-indol-3-yl)-4-(4,4,4-trifluorobutoxy)benzamide]",200 to 1000 nM
13,"O=C(Nc1c[nH]c2cc(F)c(F)cc12)c1ccnc(NCCCC(F)(F)F)n1 [Compound 164, N-(5,6-difluoro-1H-indol-3-yl)-2-((4,4,4-trifluorobutyl)amino)pyrimidine-4-carboxamide]",1000 to 5000 nM
14,"O=C(Nc1c[nH]c2cc(F)c(F)cc12)c1cnc(N2CC3(CC(OCC(F)(F)F)C3)C2)c(F)c1 [Compound 221, N-(5,6-difluoro-1H-indol-3-yl)-5-fluoro-6-(6-(2,2,2-trifluoroethoxy)-2-azaspiro[3.3]heptan-2-yl)nicotinamide]",40 to 200 nM
15,"O=C(Nc1c[nH]c2cc(F)c(Cl)cc12)c1ccc(C2(O)CCC(F)(F)CC2)cc1 [Compound 259, N-(5-chloro-6-fluoro-1H-indol-3-yl)-4-(4,4-difluoro-1-hydroxycyclohexyl)benzamide]",200 to 1000 nM
16,"O=C(Nc1c[nH]c2cc(F)c(F)cc12)c1cnc(N2CCC3(CC2)CC3(F)F)c(F)c1 [Compound 219, N-(5,6-difluoro-1H-indol-3-yl)-6-(1,1-difluoro-6-azaspiro[2.5]octan-6-yl)-5-fluoronicotinamide]",40 to 200 nM
17,"O=C(Nc1c[nH]c2cc(F)c(F)cc12)c1ccc(OCCCC(F)(F)F)c(F)c1 [Compound 142, N-(5,6-difluoro-1H-indol-3-yl)-3-fluoro-4-(4,4,4-trifluorobutoxy)benzamide]",200 to 1000 nM
